Assay results taken from patent US7781470B2, “Aminodicarboxylic acid derivatives having pharmaceutical properties” (Bayer Schering Pharma Aktiengesellschaft, priority 1999, dated 2010).
Where a name gives a salt, the structure may show the parent alone.

Tests used:
[1] = test system: arteria saphena rings; assay: Vasal relaxant action in vitro (phenylephrin-contracted artery rings); format: cell-based, Rabbits; conditions: Oryctolagus cuniculus; concentration reducing phenylephrin-induced contraction by 50%; rabbit arteria saphena rings; read-out: IC50 vasorelaxant action in vitro
Experimental: Rabbits are anaesthetized by intravenous injection of thiopental sodium […] (about 50 mg/kg) and exsanguinated. The arteria saphena is removed and divided into 3 mm wide rings. The rings are individually mounted on in each case one triangular pair of hooks, open at the end, made of 0.3 mm strong special wire (Remanium®). Under a pretension, each ring is transferred into 5 ml organ baths containing a warm, carbogen-aerated Krebs-Henseleit solution at 37° C. having the following composition (mM): NaCl: 119; KCl: 4.8; CaCl2×2H2O: 1; MgSO4×7 H2O: 1.4; KH2PO4: 1.2; NaHCO3: 25; glucose: 10; bovine serum albumin: 0.001%. The contractility is detected using Statham UC2 cells, amplified and digitalized by means of A/D converters (DAS-1802 HC, Keithley Instruments Munich), and recorded in parallel on linear recorders. Contractions are induced by addition of phenylephrin.
After several (in general 4) control cycles, the substance to be investigated is added in each further passage in increasing dosage, and the height of the contraction achieved under the influence of the test substance is compared with the height of the contraction achieved in the last preliminary passage. From this, the concentration which is necessary in order to reduce the contraction achieved in the preliminary control by 50% ((IC50) is calculated. The standard administration volume is 5 μl. The proportion of DMSO in the bath solution corresponds to 0.1%.

[2] = target: T1, Haem-containing sGC (recombinant soluble guanylate cyclase) (Rattus norvegicus, UniProt P20595); assay: Stimulation of recombinant soluble guanylate cyclase (sGC) in vitro, haem-containing enzyme; format: biochemical
T1 construct: made in house
T1 sequence (P20595 1-619): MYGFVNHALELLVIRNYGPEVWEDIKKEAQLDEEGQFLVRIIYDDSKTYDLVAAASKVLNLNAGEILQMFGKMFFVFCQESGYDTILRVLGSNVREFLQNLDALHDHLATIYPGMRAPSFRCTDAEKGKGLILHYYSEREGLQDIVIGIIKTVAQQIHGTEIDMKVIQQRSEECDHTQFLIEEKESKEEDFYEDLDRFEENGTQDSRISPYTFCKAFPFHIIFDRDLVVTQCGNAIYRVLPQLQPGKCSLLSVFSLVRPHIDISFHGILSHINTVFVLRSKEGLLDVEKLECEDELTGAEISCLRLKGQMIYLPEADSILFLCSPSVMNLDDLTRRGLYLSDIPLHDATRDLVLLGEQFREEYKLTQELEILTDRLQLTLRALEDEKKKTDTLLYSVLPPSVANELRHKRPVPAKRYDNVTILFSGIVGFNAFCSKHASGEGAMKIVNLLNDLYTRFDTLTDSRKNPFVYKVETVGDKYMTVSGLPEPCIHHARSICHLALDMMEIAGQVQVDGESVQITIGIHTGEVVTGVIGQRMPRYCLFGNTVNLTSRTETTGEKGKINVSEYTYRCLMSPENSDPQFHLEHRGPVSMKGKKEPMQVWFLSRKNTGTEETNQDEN
T1 sequence (P19686 1-690 partner): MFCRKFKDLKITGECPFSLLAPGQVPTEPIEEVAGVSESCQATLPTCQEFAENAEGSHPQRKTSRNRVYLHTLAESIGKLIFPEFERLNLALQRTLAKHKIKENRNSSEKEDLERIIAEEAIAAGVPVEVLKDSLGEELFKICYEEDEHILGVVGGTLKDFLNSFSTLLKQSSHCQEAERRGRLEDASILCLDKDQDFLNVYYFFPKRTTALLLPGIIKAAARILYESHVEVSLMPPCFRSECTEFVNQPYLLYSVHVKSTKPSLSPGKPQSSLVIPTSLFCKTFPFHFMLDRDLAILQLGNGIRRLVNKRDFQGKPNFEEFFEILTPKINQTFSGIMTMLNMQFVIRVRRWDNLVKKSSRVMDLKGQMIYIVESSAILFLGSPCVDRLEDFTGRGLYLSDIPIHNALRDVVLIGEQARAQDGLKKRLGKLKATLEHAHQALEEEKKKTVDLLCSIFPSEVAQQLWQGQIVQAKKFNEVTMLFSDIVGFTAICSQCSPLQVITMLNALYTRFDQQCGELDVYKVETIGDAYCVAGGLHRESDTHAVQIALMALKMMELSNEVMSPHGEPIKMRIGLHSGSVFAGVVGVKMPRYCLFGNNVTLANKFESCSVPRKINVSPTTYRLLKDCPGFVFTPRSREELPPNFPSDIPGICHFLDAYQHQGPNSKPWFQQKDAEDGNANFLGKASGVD
Experimental: (§1) The investigations on the stimulation of recombinant soluble guanylate cyclase (sGC) and the compounds according to the invention with and without sodium nitroprusside and with and without the haem-dependent sGC inhibitor 1H-1,2,4-oxadiazole-(4,3a)-quinoxalin-1-one (ODQ) were carried out by the method described in detail in the following literature reference: M. Hoenicka, E. M. Becker, H. Apeler, T. Sirichoke, H. Schroeder, R. Gerzer and J.-P. Stasch: Purified soluble guanylyl cyclase expressed in a baculovirus/Sf9 system: stimulation by YC-1, nitric oxide, and […]. J. Mol. Med. 77 (1999): 14-23.
(§2) Activation of sGC by a test substance is stated as n-fold stimulation of basal activity.

[3] = target: T2, Haem-free sGC (recombinant soluble guanylate cyclase) (Rattus norvegicus, UniProt P20595); assay: Stimulation of recombinant soluble guanylate cyclase (sGC) in vitro, haem-free enzyme; format: biochemical; conditions: for Stimulation (n-fold), haem-free sGC, basal: Tween 20 0.5%
T2 construct: made in house
T2 sequence (P20595 1-619): T1 sequence (P20595 1-619)
T2 sequence (P19686 1-690 partner): T1 sequence (P19686 1-690 partner)
Experimental: as §1
Haem-free guanylate cyclase was obtained by adding Tween 20 to the sample buffer (final concentration 0.5%).
as §2

[4] = 0.1 μM test compound + ODQ 10 μM
[5] = 1.0 μM test compound + ODQ 10 μM
[6] = 10 μM test compound + ODQ 10 μM
[7] = ODQ 10 μM, Ex. 87 concentration 0

O=C(O)CCCCN(CCc1ccccc1OCc1ccc(CCc2ccccc2)cc1)Cc1ccc(C(=O)O)cc1 [Example 8, 4-[((4-Carboxybutyl)-{2-[(4-phenethylbenzyl)oxy]phenethyl}amino)-methyl]benzoic Acid Hydrochloride]
IC50 [1]: 0.4 nM

O=C(O)CCCCN(CCc1ccccc1OCc1ccc(-c2csc(C(F)(F)F)n2)cc1)Cc1ccc(C(=O)O)cc1 [Example 72]
IC50 [1]: 29 nM

O=C(O)CCCCN(CCc1ccccc1OCc1ccc(OCc2ccccc2)cc1)Cc1ccc(C(=O)O)cc1 [Example 32]
IC50 [1]: 6.5 nM

O=C(O)c1ccc(CN(CCOc2ccc(C(=O)O)cc2)CCc2ccccc2OCCCCCc2ccccc2)cc1 [Example 98]
IC50 [1]: 3.4 nM

COc1ccc(-c2ccc(COc3ccccc3CCN(CCCCC(=O)O)Cc3ccc(C(=O)O)cc3)cc2)cc1 [Example 88]
IC50 [1]: 0.4 nM

O=C(O)CCCCN(CCc1ccccc1OCc1ccc(/C=C/c2ccccc2)cc1)Cc1ccc(C(=O)O)cc1 [Example 33]
IC50 [1]: 0.5 nM

O=C(O)CCCCN(CCc1ccccc1OCc1ccc(-c2ccc(Cl)cc2)cc1)Cc1ccc(C(=O)O)cc1 [Example 87]
IC50 [1]: 0.5 nM | Stimulation (n-fold), haem-containing sGC, +ODQ (10 μM) [2, 4]: 132 n-fold | Stimulation (n-fold), haem-containing sGC, +SNP (0.1 μM) ([2]; 0.1 μM test compound + SNP 0.1 μM): 41 n-fold | Stimulation (n-fold), haem-containing sGC, basal ([2]; 0.1 μM test compound, n-fold stimulation of basal activity): 15 n-fold | Stimulation (n-fold), haem-containing sGC, basal ([2]; 1.0 μM test compound): 18 n-fold | Stimulation (n-fold), haem-containing sGC, +ODQ (10 μM) [2, 5]: 115 n-fold | Stimulation (n-fold), haem-containing sGC, +SNP (0.1 μM) ([2]; 1.0 μM test compound + SNP 0.1 μM): 47 n-fold | Stimulation (n-fold), haem-containing sGC, basal ([2]; 10 μM test compound): 24 n-fold | Stimulation (n-fold), haem-containing sGC, +ODQ (10 μM) [2, 6]: 181 n-fold | Stimulation (n-fold), haem-containing sGC, +SNP (0.1 μM) ([2]; 10 μM test compound + SNP 0.1 μM): 60 n-fold | Stimulation (n-fold), haem-free sGC, +ODQ (10 μM) [3, 4]: 361 n-fold | Stimulation (n-fold), haem-free sGC, basal ([3]; 0.1 μM test compound): 353 n-fold | Stimulation (n-fold), haem-free sGC, +ODQ (10 μM) [3, 5]: 457 n-fold | Stimulation (n-fold), haem-free sGC, basal ([3]; 1.0 μM test compound): 491 n-fold | Stimulation (n-fold), haem-free sGC, +ODQ (10 μM) [3, 6]: 477 n-fold | Stimulation (n-fold), haem-free sGC, basal ([3]; 10 μM test compound): 529 n-fold

CC(C)(C)c1ccc(COc2ccccc2CCN(CCCCC(=O)O)Cc2ccc(C(=O)O)cc2)cc1 [Example 30]
IC50 [1]: 17 nM

O=C(O)CCCCN(CCc1ccccc1OCc1ccc(Oc2ccc(C(F)(F)F)cc2)cc1)Cc1ccc(C(=O)O)cc1 [Example 86]
IC50 [1]: 0.4 nM

C#CCOc1ccccc1CCN(CCCCC(=O)O)Cc1ccc(C(=O)O)cc1 [Example 37]
IC50 [1]: 830 nM

O=c1onc2cnc3ccccc3n12 [ODQ, 1H-1,2,4-oxadiazol-(4,3a)-quinoxalin-1-one, reference compound]
Stimulation (n-fold), haem-containing sGC, ODQ alone [2, 7]: 1 n-fold | Stimulation (n-fold), haem-free sGC, ODQ alone [3, 7]: 1 n-fold

CCCCCCCCOc1ccccc1CCN(CCOc1ccc(C(=O)O)cc1)Cc1ccc(C(=O)O)cc1 [Example 103]
IC50 [1]: 3.9 nM

O=C(O)CCCCN(CCc1ccccc1OCc1ccc(Oc2ccc(Cl)cc2)cc1)Cc1ccc(C(=O)O)cc1 [Example 28]
IC50 [1]: 2.8 nM

O=C(O)c1ccc(CN(CCOc2ccc(C(=O)O)cc2)CCc2ccccc2OCc2ccc(C3CCCCC3)cc2)cc1 [Example 102]
IC50 [1]: 0.2 nM

O=C(O)CCCCN(CCc1ccccc1OCc1ccc2c(c1)CCCC2)Cc1ccc(C(=O)O)cc1 [Example 76]
IC50 [1]: 29 nM

O=C(O)CCCCN(CCc1ccccc1OCc1ccc(C2CCCCC2)cc1)Cc1ccc(C(=O)O)cc1 [Example 70]
IC50 [1]: 0.2 nM

O=C(O)CCCCCN(CCc1ccccc1OCc1ccc(-c2ccccc2)cc1)Cc1ccc(C(=O)O)cc1 [Example 56]
IC50 [1]: 73 nM
